Experimental data taken from patent publication US20170184604A1, “DD1ALPHA RECEPTOR AND USES THEREOF IN IMMUNE DISORDERS” (THE GENERAL HOSPITAL CORPORATION, priority 2014, published 2017).

Tests used:
MCF7 cells = test: p53-mediated induction of checkpoint proteins (western blot); type: cell-based, human; conditions: 10 μM
Procedure: (§1) FIGS. 6A-6E show physical association of DD1α with PD1 but not with PD-L1. (FIG. 6A) Interaction of DD1α with PD1 or DD1α. […] The bound Ig fusion proteins were detected with anti-Ig-APC. Empty vector (pcDNA3.1)-transfected cells stained with Ig proteins are shown as a negative control (gray filled) and other staining is shown as black open. (FIG. 6B) DD1α binds to both DD1α and PD1 on CD4+ T cells. Purified CD4+ T cells from Wt and DD1α−/− mice were assayed for binding to Ig fused DD1α or PD1 proteins. Cells were incubated with DD1α-Ig (open), PD1-Ig (open), or control Ig proteins (gray filled) and the bound Ig fusion proteins were detected by anti-Ig-APC. […] The bound Ig fusion proteins were detected by anti-Ig-APC. Binding amounts were determined by percentage of APC positive cells compared to control Ig protein-bound cells. (FIG. 6C) Ig-pulldown experiments show DD1α interaction with both DD1α and PD1. […] The bead bound proteins were eluted and determined by western blot analysis using anti-HA antibody (asterisks). […] The bead bound proteins were eluted and detected by western blot analysis with anti-DD1α or anti-PD1 antibody (asterisk). […] The levels of indicated proteins were analyzed by western blot analysis. Total RNAs from control siRNA or p53 siRNA transfected MCF7 cells were assessed for mRNA levels of PD1 or PD-L1 by real-time quantitative PCR. […]

[1] = target: mouse DD1α on mouse cells (CD4+ and CD8+ T cells, thymocytes, bone marrow-derived macrophages) (mouse) (UniProt Q9D659); test: cell-based or functional assay
mouse DD1α on mouse cells (CD4+ and CD8+ T cells, thymocytes, bone marrow-derived macrophages) (mouse), sequence (Q9D659 33-308): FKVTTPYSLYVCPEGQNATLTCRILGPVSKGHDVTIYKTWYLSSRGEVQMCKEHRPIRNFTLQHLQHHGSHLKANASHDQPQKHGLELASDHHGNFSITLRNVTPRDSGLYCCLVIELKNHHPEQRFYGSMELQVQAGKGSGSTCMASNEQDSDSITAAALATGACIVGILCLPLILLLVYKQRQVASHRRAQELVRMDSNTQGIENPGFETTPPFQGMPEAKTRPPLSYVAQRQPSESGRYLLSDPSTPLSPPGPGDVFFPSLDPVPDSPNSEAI

[2] = tested on: CD4+ or CD8+ T cells from wt- or DD1α−/− mice; test: Mouse T cell activation assay (CFSE proliferation); type: cell-based
Procedure: Enriched CD4+ and CD8+ T cells from Wt and DD1α−/− mice were stimulated, with 2.5 μg/ml anti-CD3 alone or together with DD1α-Ig or control Ig. The proliferations of CD4+ T cells (top graphs) or CD8+ T cells (bottom graphs) were determined by the percentage of CFSE-diluted CD8+ cells on day 3. The levels of cytokines (IFN-γ and TNF-α) in culture supernatant on day 2 were analyzed by ELISA. The results represent mean±SD from three experiments.
The inventors have discovered that DD1αregulates T cell activation through DD1α on T cells. […] The proliferations of CD4+ T cells were determined by percentage of CFSE-diluted CD4+ cells on day 3 and IFN-γ and levels in culture supernatants on day 2 were analyzed by ELISA. […] The proliferations of CD8+ T cells were determined by percentage of CD8+ T cells containing diluted CFSE signal on day 3. The cytokine levels in culture supernatant were analyzed by ELISA on day 2.
The amount of Ig protein was kept constant at 10 μg/ml by the addition of control Ig protein. Human CD4+ or CD8+ T cells were purified from freshly isolated PBMCs using CD4+ T Cell Isolation Kit II, human or CD8+ T Cell Isolation Kit, human (Miltenyi Biotec). Mouse CD4+ and CD8+ T cells were purified from splenocytes freshly isolated from mice using CD4+ T Cell Isolation Kit II, mouse or CD8a+ T Cell Isolation Kit II, mouse (Miltenyi Biotec). Purity was confirmed to be over 90% by flow cytometry. The T cells were labeled with 1 μM CFSE, quenched by cold FBS and incubated in the anti-CD3 & Ig proteins-coated plates. On day 2 after stimulation, supernatant was collected and cytokines were assayed by ELISA. On day 3, cells were stained with anti-CD4-APC (OKT4, eBioscience for human CD4+ T cells; RM4-5, eBioscience for mouse CD4+ T cells) or anti-CD8-APC (SK1, eBioscience for human CD8+ T cells; 53-6.7, eBioscience for mouse CD8+ T cells) and then analyzed for CFSE dilution by flow cytometry.

[3] = tested on: wt- or DD1α−/− mouse CD4+ T cells; test: Ig fusion protein binding to CD4+ T cells from Wt and DD1α−/− mice
Procedure: as §1

[4] = tested on: Jurkat cells expressing DD1α receptor; test: Ig fusion protein binding to Jurkat cells; conditions: several concentrations; anti-Ig-APC detection
Procedure: Jurkat cells overexpressing DD1alpha (transfected with DD1alpha cDNA) or control Jurkat cells were assayed for binding to Ig-fused DD1α or PD-1 proteins. Cells were incubated with several different concentrations of DD1α-Ig (left panels) or PD1-Ig (right panels), and the bound Ig fusion proteins were detected by anti-Ig-APC. Binding amounts were determined by percentage of APC positive cells.

DD1α = test: Ig fusion protein-pull down assay; type: binding, human
Procedure: FIGS. 6A-6E show physical association of DD1α with PD1 but not with PD-L1. (FIG. 6A) Interaction of DD1α with PD1 or DD1α. […] The bound Ig fusion proteins were detected with anti-Ig-APC. Empty vector (pcDNA3.1)-transfected cells stained with Ig proteins are shown as a negative control (gray filled) and other staining is shown as black open. (FIG. 6B) DD1α binds to both DD1α and PD1 on CD4+ T cells. Purified CD4+ T cells from Wt and DD1α−/− mice were assayed for binding to Ig fused DD1α or PD1 proteins. Cells were incubated with DD1α-Ig (open), PD1-Ig (open), or control Ig proteins (gray filled) and the bound Ig fusion proteins were detected by anti-Ig-APC. […] The bound Ig fusion proteins were detected by anti-Ig-APC. Binding amounts were determined by percentage of APC positive cells compared to control Ig protein-bound cells. (FIG. 6C) Ig-pulldown experiments show DD1α interaction with both DD1α and PD1. […] The bead bound proteins were eluted and determined by western blot analysis using anti-HA antibody (asterisks). (FIG. 6D) Ig fusion proteins (control Ig, DD1α-Ig, or PD1-Ig) were incubated with lysates from Nutlin-3-treated MCF7 cells and pulled down using protein A/G agarose. The bead bound proteins were eluted and detected by western blot analysis with anti-DD1α or anti-PD1 antibody (asterisk). (FIG. 6E) p53-mediated induction of PD1 and PD-L1. MCF7 cells were treated by Nutlin-3 (10 μM) for 1 to 3 days. MCF7 cells were transfected with control siRNA or p53 siRNA for 24 hours and treated with CPT (500 nM) or DMSO (control) for 1 and 2 days. The levels of indicated proteins were analyzed by western blot analysis. Total RNAs from control siRNA or p53 siRNA transfected MCF7 cells were assessed for mRNA levels of PD1 or PD-L1 by real-time quantitative PCR. PD1 or PD-L1 mRNA levels were normalized to 36B4 expression and shown as mean±SD (n=3). Protein levels of PD1 and PD-L1 were examined in EJ-p53tet cells in the absence or presence of tetracycline (tet), ZR75-1 cells treated with CPT (500 nM), or A375 cells exposed to 13 Gy ionizing irradiation for the indicated times.
Ig fusion proteins (control Ig, DD1α-Ig, or PD1-Ig) were incubated with lysates from Nutlin-3-treated MCF7 cells and pulled down using proten A/G agarose. The bead bound proteins were eluted and detected by western blot analysis with anti-DD1α or anti-PD1 antibody.
Based on the results that both PD-1 and DD1α receptors on T cells contribute to the co-inhibitory roles for DD1α(FIG. 5), it was tested whether DD1α could physically and functionally associate with PD-1 receptor. […] To confirm the specificity of this interaction, the inventors carried out Ig fusion protein-pull down assays using lysates from PD-1, DD1α, or TIM3-transfected 293T cells. […]

[5] = target: T1, DD1α-Ig fusion protein (the extracellular region of DD1α fused with the immunoglobulin G Fc segment) (human, UniProt Q9H7M9 33-194); test: DD1α-Ig-coated beads on transfected 293T cells
T1 construct: also called DD1α-Fc fusion soluble protein; Fc-tagged soluble DD1α protein; not shown: mouse IgG-Fc region of the pCMV6-AC-FC vector (OriGene)
From the text: Scale bar, 50 μm. […] Scale bar, 100 μm. […] Scale bar, 50 μm.

His-DD1α (33-194) = target: T2, His-DD1α (33-194) (human, UniProt Q9H7M9 33-194); test: GST pull-down, anti-His immunoblot
T2 construct: not shown: His tag of the pRSET vector (Invitrogen)

`COc1ccc(C2=N[C@@H](c3ccc(Cl)cc3)[C@@H](c3ccc(Cl)cc3)N2C(=O)N2CCNC(=O)C2)c(OC(C)C)c1` [Nutlin-3] was tested. Which “CTLA-4 and ICOSL protein levels” value (MCF7 cells) did it give?
Its value is “did not respond”.

And the “PD-1 and PD-L1 protein levels” value (MCF7 cells)?
Its value is “induced”.

What does the source list for “DD1α-Ig as used on mouse T cells (Fc fusion)”?
inhibition of anti-CD3-induced proliferation of DD1α-/- mouse CD4+ or CD8+ T cells [1]: 30%; inhibition of anti-CD3-induced proliferation of Wt mouse CD4+ or CD8+ T cells [1]: 50%

What does the source list for “PD-1-Ig as used on mouse T cells (Fc fusion)”?
inhibition of anti-CD3-induced proliferation of mouse CD4+ T cells [1]: 45%; reversal of PD-1-Ig-mediated inhibition in DD1α-/- CD4+ T cells [1]: 30%

For “PD-1-Ig: Recombinant human or mouse PD-1-Ig fusion protein from R&D Systems [reference compound]”, which “reversal of PD-1-Ig-mediated inhibition of CD4+ T cell stimulation” value ([2]; DD1α−/− CD4+ T cells) is on record?
Its value is ~30%.

And the “inhibition of anti-CD3-induced CD4+ T cell proliferation” value ([2]; mouse CD4+ T cells, wt)?
Its value is ~45%.

What about the “binding to the surface of DD1α−/− CD4+ T cells compared with wt-CD4+ T cells” value [3] of the same molecule?
The value was “significantly lower”.

What about the “binding to Jurkat cells expressing DD1α receptor” value [4] of the same molecule?
Its value is “bind”.

What about the “pull down of DD1α” value (DD1α; lysates from transfected 293T cells) of the same molecule?
The value was “pulled down”.

And the “pull down of endogenous DD1α receptor” value (DD1α; lysates of Nutlin-3-treated MCF7 cells)?
Its value is “detected”.

B1: DD1α-ΔIgV (immunoglobulin V domain (aa 45-168)-deleted mutant) expressed on transfected cells (receptor)
chain: FKVATPYSLYVCQTGKDAPSNCVVYPSSSQDSENITAAALATGACIVGILCLPLILLLVYKQRQAASNRRAQELVRMDSNIQGIENPGFEASPPAQGIPEAKVRHPLSYVAQRQPSESGRHLLSEPSTPLSPPGPGDVFFPSLDPVPDSPNFEVI
notes: signal peptide 1-32 left out; also called mutant lacking the IgV domain; IgV-deleted DD1α
Does B1 bind [5]?
Result: no binding

B2: GST-DD1α-ΔIgV (33-311, ΔIgV) (other)
chain: B1 chain
notes: also called IgV-deleted mutant; IgV-deleted DD1α (GST fusion); not shown: N-terminal GST tag and linker of pGEX-6P-1
Does B2 bind (His-DD1α (33-194))?
Result: no binding

B3: GST-DD1α (215-311), the cytoplasmic region (other)
chain: VYKQRQAASNRRAQELVRMDSNIQGIENPGFEASPPAQGIPEAKVRHPLSYVAQRQPSESGRHLLSEPSTPLSPPGPGDVFFPSLDPVPDSPNFEVI
notes: also called the cytoplasmic region of DD1α (GST fusion); not shown: glutathione S-transferase tag of the pGEX-6P-1 vector
Does B3 bind (His-DD1α (33-194))?
Result: no binding
